Source: patent US4918099A, “Drug, preparation and use thereof” (priority 1985, dated 1990)
Like-named read-outs stand apart in the source and are kept apart here.

Columns and labels:
[1] = system: cyclo-oxygenase; conditions: conventional prostaglandin synthesis inhibitors; cited from earlier work
[2] = system: prostacyclin synthetase; conditions: conventional prostaglandin synthesis inhibitors; cited from earlier work
[3] = system: platelet aggregation in diabetic human plasma; assay: Platelet aggregation in diabetic human plasma induced by ADP; assay type: cell-based; conditions: for activity at 1000 µM / inhibition at 1000 µM / activity at 100 µM / inhibition at 100 µM: Homo sapiens, Platelet; for activity at 1000 µM / activity at 100 µM: control 100
Protocol: (§1) The platelet aggregation was determined by a tubimetric method in a dual-channel aggregometer, assuming that a platelet-poor plasma represented 100% aggregation and that a platelet-rich plasma represented 0% aggregation. Each aggregometer tube was charged with 40 μl of platelet-rich plasma and 50 μl of test sample solution. The mixture was incubated at 37° C. for 2 min., whereupon 50 μl of ADP solution were added. Percent inhibition of the platelet aggregation caused by the test sample solution was calculated as follows: [formula]

[4] = system: platelet aggregation in normal human plasma; assay: Platelet aggregation in normal human plasma induced by ADP; assay type: cell-based; conditions: for T/min, Aggregation (first value) / Tmax, Aggregation (first value): control 75.1; for activity at 1000 µM / inhibition at 1000 µM / activity at 100 µM / inhibition at 100 µM: Homo sapiens, Platelet; for activity at 1000 µM / activity at 100 µM: control 100
Protocol: as §1

[5] = Rev. Latinoam. Microbiol. 1, 225-232 (1958); cited from earlier work
[6] = system: lipid peroxidation in the mitochondria of rat liver; conditions: Arch. Pharm. Res. 7, 63-64, 1984; cited from earlier work
[7] = Planta Med. 31, 214-220 (1977); cited from earlier work
[8] = Comparison of synthetic substances with full extract; conditions: synthetically prepared substance
[9] = system: plasmalipid; conditions: spontaneously hypertensive rats; Fette-Seifen-Anstrichmittel 87, 74-76 (1985); cited from earlier work
[10] = Increase of the peripheral insulin action in diabetic mice; assay type: in vivo; conditions: 0.46 mU/g, control group (FIG. 5)
Protocol: Diabetic mice were divided into a control group and a test group. A dose of 100 mg of brazilin per kg body weight was daily administered to the animals of the test group; instead of brazilin, the same amount of saline solution was injected intraperitoneally to the animals of the control group.
After 30 test days, the body weight of the animals of the test group was higher and the blood sugar values of these animals were lower as compared to the diabetic animals of the control group.
On the 30th test day, the animals were made to fast for 5 h; thereupon, they were injected intravenously with 0.46 mU/g of NPH insulin. Then, the blood sugar values were measured at respective intervals of 5 min.

[11] = 10^-3 M, read-out: Tmax, Aggregation relative to control (second value)
[12] = 10^-3 M, read-out: Tmax, Inhibition
[13] = 10^-4 M, read-out: Tmax, Aggregation relative to control (second value)
[14] = 10^-4 M, read-out: Tmax, Inhibition
[15] = 10^-3 M, read-out: T/min, Aggregation relative to control (second value)
[16] = 10^-3 M, read-out: T/min, Inhibition
[17] = 10^-4 M, read-out: T/min, Aggregation relative to control (second value)
[18] = 10^-4 M, read-out: T/min, Inhibition

| Molecule | inhibition of cyclo-oxygenase [1] | inhibition of prostacyclin synthetase [2] | Tmax, Aggregation (first value) ([3]; 10^-3 M, control 78.7) [%] | Tmax, Aggregation (first value) ([3]; 10^-4 M, control 78.7) [%] | activity at 1000 µM [3, 11] [%] | inhibition at 1000 µM [3, 12] [%] | activity at 100 µM [3, 13] [%] | inhibition at 100 µM [3, 14] [%] | T/min, Aggregation (first value) ([4]; 10^-3 M) [%] | Tmax, Aggregation (first value) ([4]; 10^-3 M) [%] | T/min, Aggregation (first value) ([4]; 10^-4 M) [%] | Tmax, Aggregation (first value) ([4]; 10^-4 M) [%] | activity at 1000 µM [4, 15] [%] | activity at 1000 µM [4, 11] [%] | inhibition at 1000 µM [4, 16] [%] | inhibition at 1000 µM [4, 12] [%] | activity at 100 µM [4, 17] [%] | activity at 100 µM [4, 13] [%] | inhibition at 100 µM [4, 18] [%] | inhibition at 100 µM [4, 14] [%] | further results |
| --- | --- | --- | --- | --- | --- | --- | --- | --- | --- | --- | --- | --- | --- | --- | --- | --- | --- | --- | --- | --- | --- |
| CC(=O)Oc1ccccc1C(=O)O [acetylsalicylic acid, reference compound] | inhibit the activity of cyclo-oxygenase | prostacyclin synthetase is also undesirably inhibited | 70.0 | 73.8 | 88.9 | 11.1 | 93.6 | 6.4 | 11.9 | 37.5 | 17.4 | 60.2 | 15.8 | 49.9 | 84.6 | 50.1 | 23.2 | 80.1 | 76.8 | 19.9 |  |
| Oc1cc2c(cc1O)[C@@H]1c3ccc(O)c(O)c3OC[C@]1(O)C2 [hematoxylin] |  |  | 52.5 | 76.3 | 66.5 | 33.5 | 96.8 | 3.2 | 11.7 | 22.6 | 58.8 | 68.1 | 15.6 | 30.8 | 84.4 | 69.8 | 78.4 | 90.6 | 21.7 | 9.4 | antibacterial effect [5]: antibacterial effect; effect on lipid peroxidation in mitochondria of rat liver [6]: effect on the lipid peroxidation; anti-inflammatory effect [7]: anti-inflammatory effect; effects compared with administration of major amounts of full extract [8]: substantially has the same effects; T/min, Aggregation (first value) ([3]; 10^-3 M, control 78.7): 7.5%; activity at 1000 µM [3, 15]: 9.5%; inhibition at 1000 µM [3, 16]: 90.5%; inhibition of the platelet aggregation ([3]; conclusion on Tables 12 and 13): considerable inhibition of the platelet aggregation; plasmalipid-reducing effect [9]: plasmalipid-reducing effect |
| COc1ccc2c(c1)c(CC(=O)O)c(C)n2C(=O)c1ccc(Cl)cc1 [indomethacin] | inhibit the activity of cyclo-oxygenase | prostacyclin synthetase is also undesirably inhibited |  |  |  |  |  |  |  |  |  |  |  |  |  |  |  |  |  |  |  |
| NPH insulin [reference compound] |  |  |  |  |  |  |  |  |  |  |  |  |  |  |  |  |  |  |  |  | blood sugar after i.v. NPH insulin in diabetic control mice [10]: cannot significantly change the blood sugar value |
